In patent publication USRE38132E1, “Phenylpyrrolidines, phenylimidazolidines,3-phenyl-1,3-oxizolidines and 3-phenyl-1,3-thiazolidines and their use in the treatment of inflammatory disease” (Boehringer Ingelheim Pharmaceuticals, Inc., priority 1997, dated 2003):
Like-named read-outs stand apart in the source and are kept apart here.

Assays:
[1] = biological target: T1, interaction of ICAM-1 with the Leukointegrin CD18/CD11a (LFA-1) (Homo sapiens, UniProt P05107+P20701); assay: Assay to determine inhibition of LFA-1 binding to ICAM-1 (immunopurified LFA-1 on plate-bound sICAM-1, ELISA readout)
T1 construct: endogenous in cells; sICAM-1: made in house, secreted from transfected CHO DUX cells
T1 sequence (P20701 26-1170): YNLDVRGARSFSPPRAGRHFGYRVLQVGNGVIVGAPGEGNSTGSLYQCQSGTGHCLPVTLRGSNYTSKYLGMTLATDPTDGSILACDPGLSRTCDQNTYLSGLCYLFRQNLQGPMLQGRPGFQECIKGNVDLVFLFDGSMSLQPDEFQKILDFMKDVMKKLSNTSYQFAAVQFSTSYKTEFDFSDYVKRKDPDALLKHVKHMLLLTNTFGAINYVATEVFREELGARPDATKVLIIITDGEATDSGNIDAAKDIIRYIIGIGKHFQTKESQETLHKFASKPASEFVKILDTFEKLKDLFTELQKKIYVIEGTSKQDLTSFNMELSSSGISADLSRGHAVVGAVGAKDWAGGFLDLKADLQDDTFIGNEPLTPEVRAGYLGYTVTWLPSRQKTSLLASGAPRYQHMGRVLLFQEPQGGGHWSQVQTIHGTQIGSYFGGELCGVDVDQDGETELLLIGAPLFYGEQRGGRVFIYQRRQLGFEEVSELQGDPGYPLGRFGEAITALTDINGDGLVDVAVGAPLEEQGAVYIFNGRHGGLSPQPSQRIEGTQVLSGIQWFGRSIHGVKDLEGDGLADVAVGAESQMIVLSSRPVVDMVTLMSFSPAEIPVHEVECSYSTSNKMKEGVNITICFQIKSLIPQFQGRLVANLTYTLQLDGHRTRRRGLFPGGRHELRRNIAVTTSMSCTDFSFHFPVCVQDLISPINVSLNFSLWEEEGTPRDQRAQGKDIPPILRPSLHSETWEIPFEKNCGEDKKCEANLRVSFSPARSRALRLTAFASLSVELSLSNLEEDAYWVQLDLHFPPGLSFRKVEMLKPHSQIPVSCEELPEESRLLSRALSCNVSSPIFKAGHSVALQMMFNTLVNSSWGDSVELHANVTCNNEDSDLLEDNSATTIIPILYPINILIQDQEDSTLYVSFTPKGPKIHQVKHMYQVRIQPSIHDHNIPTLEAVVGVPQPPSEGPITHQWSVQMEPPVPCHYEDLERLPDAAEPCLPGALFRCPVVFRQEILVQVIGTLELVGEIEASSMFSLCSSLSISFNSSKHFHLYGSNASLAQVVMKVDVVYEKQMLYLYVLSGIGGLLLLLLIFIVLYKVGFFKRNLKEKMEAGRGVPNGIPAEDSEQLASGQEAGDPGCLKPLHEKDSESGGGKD
T1 sequence (P05107 23-769): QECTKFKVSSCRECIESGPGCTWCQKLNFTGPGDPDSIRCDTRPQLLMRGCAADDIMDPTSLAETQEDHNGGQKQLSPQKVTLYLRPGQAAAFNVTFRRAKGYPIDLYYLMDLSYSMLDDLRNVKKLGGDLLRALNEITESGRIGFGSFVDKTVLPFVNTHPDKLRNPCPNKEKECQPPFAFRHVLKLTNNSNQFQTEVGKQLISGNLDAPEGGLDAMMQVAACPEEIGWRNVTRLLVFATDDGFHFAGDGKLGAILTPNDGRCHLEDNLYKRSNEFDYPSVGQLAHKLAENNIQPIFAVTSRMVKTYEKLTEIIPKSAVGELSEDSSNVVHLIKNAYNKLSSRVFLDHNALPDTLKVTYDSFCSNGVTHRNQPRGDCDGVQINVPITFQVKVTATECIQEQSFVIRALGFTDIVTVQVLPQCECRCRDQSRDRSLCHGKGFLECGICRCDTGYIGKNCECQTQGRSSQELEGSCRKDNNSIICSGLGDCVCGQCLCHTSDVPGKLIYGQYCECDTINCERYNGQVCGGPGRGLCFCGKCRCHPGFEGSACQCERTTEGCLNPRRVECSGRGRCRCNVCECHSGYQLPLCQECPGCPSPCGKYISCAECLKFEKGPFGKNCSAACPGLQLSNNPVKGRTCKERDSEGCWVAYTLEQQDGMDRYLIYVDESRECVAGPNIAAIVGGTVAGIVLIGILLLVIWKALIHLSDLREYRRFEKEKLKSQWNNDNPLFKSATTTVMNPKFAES

[2] = tested on: cell bound fibronectin receptor (VLA4) with fibronectin, SKW3 cells; assay: Inhibition of SKW3 cell binding to fibronectin (selectivity counter-assay); assay type: cell-based, human
Summary of the method: (§1)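 Compound-treated, PMA-stimulated human T-cell line SKW3 (50 μg/mL PMA final) allowed to adhere for 2 h at 37° C to wells coated with sICAM-1 at 40 μg/mL or fibronectin at 100 μg/mL. After gentle RPMI wash, 50% inhibition concentration or range reported in μM.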

[3] = tested on: cell bound form of LFA-1 (CD18, CD11a) with ICAM-1, SKW3 cells; assay: Inhibition of SKW3 cell binding to ICAM-1 (PMA-stimulated); assay type: cell-based, human; settings: Homo sapiens, read-out: Assay to Detect SKW3 Cells Binding to ICAM IC50
Summary of the method: as §1

[4] = tested on: LFA-1 dependent aggregation of JY cells; assay: JY cell homotypic aggregation assay (PMA-stimulated); assay type: cell-based, human
Excerpt: This aggregation can be enhanced by the addition of phorbol esters. […] Thus, the extent of LFA-1-dependent binding may be determined by assessing the extent of spontaneous or phorbol ester-dependent aggregate formation.
An agent which interferes with LFA-1 -dependent aggregation can be identified through the use of an assay capable of determining whether the agent interferes with either spontaneous, or phorbol ester-dependent aggregation of Epstein-Barr virus transformed cells. It is preferable to employ cells of the JY cell line (Terhost, L; et aL, Proc. Natl. Acad. Sci. USA, 1976, 73, 910) for the homotypic aggregation assay. This assay, capable of measuring LFA-1 dependent aggregation, may be employed to identify agents which act as antagonists to the LFA-1 dependent aggregation. Such agents may act by impairing the ability of either LFA-1 or ICAM-1 to mediate aggregation. Thus, agents may be examined to directly determine if they are antagonists of LFA-1 aggregation.
Description of Assay Protocol:
JY cells are cultured in RPMI 1640 culture medium supplemented with 10% fetal calf serum and 50 μg/mL gentamycin. The cells are cultured at 37° C. in an atmosphere of 5% CO2 at a relative humidity of 95%. JY cells used in this assay are washed two times with RPMI 1640 medium containing 5 mM HEPES buffer and resuspended to a concentration of 2·10^6 cells/mL. Added to flat-bottomed, 96-well microtiter plates are 50 μL of test compound diluted in complete medium, 50 μL of complete medium with or without purified monoclonal antibodies (negative and positive controls for inhibition, respectively), 50 μL of complete medium containing 200 ng/mL of the phorbol ester phorbol myristate acetate (PMA) and 100 μL of cells at a concentration of 2·10^6 cells/mL in complete medium. This yields a final concentration of […] PMA and 2·10^5 cells/well. Cells are allowed to settle spontaneously, and the degree of aggregation is scored at various time points. […] This procedure has been described by Rothlein, R. R.; et al., J. Exp. Med. 1986, 163, 1132-1149. This paper also reported that antibody to LFA-1 is capable of inhibiting the formation of aggregates.
Data are reported as the concentration or concentration range (in μM) at which 50% of binding is inhibited.

[5] = values marked e approximated from incomplete dose-response curve
[6] = values marked c: no inhibition observed up to highest dose
[7] = SKW3, values marked c: no inhibition observed up to highest dose
[8] = No inh = no inhibition observed up to highest dose, exact quantification not always possible due to intrinsic toxicity

| SMILES | Kd [1, 5] | Assay to Detect SKW3 Cells Binding to FIBRONECTIN IC50 [2, 6] | Cellular Toxicity Assay MTT LD50 (SKW3 cells) | IC50 [3, 7] | IC50 ([4]; Homo sapiens) | IC50 [4] | Kd [1] | Assay to Detect SKW3 Cells Binding to FIBRONECTIN IC50 [2, 8] | IC50 ([3]; SKW3) | IC50 ([2]; Homo sapiens, SKW3, No inh = no inhibition observed up to highest dose, exact quantification not always possible due to intrinsic toxicity, read-out: Assay to Detect SKW3 Cells Binding to FIBRONECTIN IC50) |
| --- | --- | --- | --- | --- | --- | --- | --- | --- | --- | --- |
| CC(C)(C)N1C(=O)N(c2cc(Cl)cc(Cl)c2)C(=O)C1(C)Cc1ccc(Br)cc1 (stereo not drawn) [Example 177] | 250 nM | No inh^c | 155 to 310 µM | 7000 to 14000 nM | 3700 nM | – | – | – | – | – |
| CC1(Cc2ccc(Br)cc2)OC(=O)N(c2cc(Cl)cc(Cl)c2)C1=O (stereo not drawn) [Example 180] | 190 nM | No inh^c | 200 to 400 µM | 1500 to 3000 nM | 1300 nM | – | – | – | – | – |
| C[C@]1(Cc2ccc(C(=O)c3ccccc3)cc2)NC(=O)N(c2cc(Cl)cc(Cl)c2)C1=O [Example 184] | 370 nM | No inh^c | 50 to 100 µM | 800 to 1500 nM | – | 300 nM | – | – | – | – |
| CN1C(=O)N(c2cc(Cl)cc(Cl)c2)C(=O)[C@@]1(C)Cc1ccc(-c2ccccn2)cc1 [Example 187] | 290 nM | No inh^c | 171 µM | 600 nM | 600 nM | – | – | – | – | – |
| CN1C(=O)N(c2cc(Cl)cc(Cl)c2)C(=O)[C@@]1(C)Cc1ccc(-c2cccnc2)cc1 [Example 188] | 40 nM | No inh^c | 56 to 112 µM | 300 to 1000 nM | 30 nM | – | – | – | – | – |
| C[C@]1(Cc2ccc(-c3cccnc3)cc2)NC(=O)N(c2cc(Cl)cc(Cl)c2)C1=O [Example 190] | 430 nM | No inh^c | 50 to 100 µM | 6000 to 12000 nM | 1400 nM | – | – | – | – | – |
| C[C@@]1(Cc2ccc(Br)cc2)C(=O)N(c2cc(Cl)cc(Cl)c2)C(=O)N1CCCP(=O)(O)O [Example 223] | – | – | 200 to 400 µM | – | 200 nM | – | 150 nM | No inh^c | 2000 to 4000 nM | – |
| C[C@@]1(Cc2ccc(Br)cc2)C(=O)N(c2cc(Cl)cc(Cl)c2)C(=O)N1C1CCNCC1 [Example 224] | – | – | <25 µM | – | 3100 nM | – | 280 nM | No inh^c | 5000 to 10000 nM | – |
| C[C@@]1(Cc2ccc(Br)cc2)C(=O)N(c2cc(Cl)cc(Cl)c2)C(=O)N1Cc1ccc(C(=O)O)cc1 [Example 228] | – | – | 50 to 100 µM | – | 1600 nM | – | 410 nM | No inh^c | 12000 to 25000 nM | – |
| C[C@@]1(Cc2ccc(Br)cc2)C(=O)N(c2cc(Cl)cc(Cl)c2)C(=O)N1C(=O)[C@H]1CCCN1 [Example 235] | – | – | 100 to 200 µM | – | 1600 nM | – | 330 nM | No inh^c | 9000 nM | – |
| C[C@@]1(Cc2ccc(Br)cc2)C(=O)N(c2cc(Cl)cc(Cl)c2)C(=O)N1C1CCN(CC(=O)O)CC1 [Example 237] | – | – | 50 to 100 µM | – | 100 nM | – | 130 nM | No inh^c | 1000 to 2000 nM | – |
| C[C@@]1(Cc2ccc(Br)cc2)C(=O)N(c2cc(Cl)cc(Cl)c2)C(=O)N1CCCN [Example 240] | – | – | 11 to 23 µM | – | 6300 nM | – | 110 nM | – | 1000 to 3000 nM | 13400 nM |
| C[C@@]1(Cc2ccc(Br)cc2)C(=O)N(c2cc(Cl)cc(Cl)c2)C(=O)N1Cc1ccc(C(=N)N)cc1 [Example 242] | – | – | 16 to 32 µM | – | 2800 nM | – | 400 nM | No inh^c | 10000 to 25000 nM | – |
| C[C@@]1(Cc2ccc(Br)cc2)C(=O)N(c2cc(Cl)cc(Cl)c2)C(=O)N1Cc1cccc(C(=N)N)c1 [Example 243] | – | – | 10 to 20 µM | – | 3100 nM | – | 110 nM | No inh^c | 5000 to 6000 nM | – |
| CN1C(=O)N(c2cc(Cl)cc(Cl)c2)C(=O)C1(CCO)Cc1ccc(Br)cc1 (stereo not drawn) [Example 244] | – | – | 200 to 400 µM | – | 2200 nM | – | 3980 nM | No inh^c | 4000 to 8000 nM | – |
| C[C@@]1(Cc2ccc(Br)cc2)C(=O)N(c2cc(Cl)cc(Cl)c2)C(=O)N1Cc1cccc(O)c1 [Example 245] | – | – | 25 to 50 µM | – | 700 nM | – | 210 nM | No inh^c | 1000 to 3000 nM | – |
| C[C@@]1(Cc2ccc(Br)cc2)C(=O)N(c2cc(Cl)cc(Cl)c2)C(=O)N1Cc1ccccc1O [Example 247] | – | – | 40 to 80 µM | – | 2300 nM | – | 230 nM | No inh^c | 1500 to 3000 nM | – |
| CN1C(=O)N(c2cc(Cl)cc(Cl)c2)C(=O)C1(C)Cc1ccc(Br)cc1O (stereo not drawn) [Example 248] | – | – | 50 to 100 µM | – | 700 nM | – | 370 nM | No inh^c | 9000 to 18000 nM | – |
| C[C@@]1(Cc2ccc(Br)cc2)C(=O)N(c2cc(Cl)cc(Cl)c2)C(=O)N1CCCS(=O)(=O)O [Example 249] | – | – | 200 to 400 µM | – | 400 nM | – | 160 nM | No inh^c | < 1000 nM | – |
| C[C@@]1(Cc2ccc(Br)cc2)C(=O)N(c2cc(Cl)cc(Cl)c2)C(=O)N1CCCCS(=O)(=O)O [Example 250] | – | – | 100 to 200 µM | – | 100 nM | – | 40 nM | No inh^c | < 1000 nM | – |
| C[C@@]1(Cc2ccc(Br)cc2)C(=O)N(c2cc(Cl)cc(Cl)c2)C(=O)N1CCCCn1ccnc1 [Example 252] | – | – | 17 to 20 µM | – | 300 nM | – | 110 nM | No inh^c | 400 to 800 nM | – |
| C[C@@]1(Cc2ccc(Br)cc2)C(=O)N(c2cc(Cl)cc(Cl)c2)C(=O)N1CCCCC#N [Example 256] | – | – | 150 to 300 µM | – | 400 nM | – | 120 nM | No inh^c | 800 to 2000 nM | – |
| C[C@@]1(Cc2ccc(Br)cc2)C(=O)N(c2cc(Cl)cc(Cl)c2)C(=O)N1CCCCCC#N [Example 257] | – | – | 300 µM | – | 600 nM | – | 80 nM | No inh^c | 1600 nM | – |
| CC(=O)OCCN1C(=O)N(c2cc(Cl)cc(Cl)c2)C(=O)[C@@]1(C)Cc1ccc(Br)cc1 [Example 260] | – | – | 200 to 400 µM | – | 1100 nM | – | 70 nM | No inh^c | 19000 to 38000 nM | – |
| C[C@@]1(Cc2ccc(Br)cc2)C(=O)N(c2cc(Cl)cc(Cl)c2)C(=O)N1CCCNC(=N)N [Example 262] | – | – | 25 to 75 µM | – | 400 nM | – | 80 nM | No inh^c | 1000 to 2000 nM | – |
| C[C@@]1(Cc2ccc(Br)cc2)C(=O)N(c2cc(Cl)cc(Cl)c2)C(=O)N1CCCCNC(=N)N [Example 263] | – | – | 20 to 40 µM | – | 800 nM | – | 90 nM | No inh^c | 800 to 1600 nM | – |
| C[C@@]1(Cc2ccc(Br)cc2)C(=O)N(c2cc(Cl)cc(Cl)c2)C(=O)N1CCCCCNC(=N)N [Example 264] | – | – | 12 to 24 µM | – | 400 nM | – | 120 nM | No inh^c | 2000 to 5000 nM | – |
